One test concerns the target T1, IL-8 (Homo sapiens, UniProt P10145).
T1 sequence (P10145 21-99): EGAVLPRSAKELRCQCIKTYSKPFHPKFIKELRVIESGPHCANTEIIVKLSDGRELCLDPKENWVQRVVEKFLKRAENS
Briefly: FP competition assay. The format is binding. The note with it: FP competition with probe 15 (table footnote).

In the next test the target is T2, BMP-2 (Homo sapiens, UniProt P12643).
T2 sequence (P12643 283-396): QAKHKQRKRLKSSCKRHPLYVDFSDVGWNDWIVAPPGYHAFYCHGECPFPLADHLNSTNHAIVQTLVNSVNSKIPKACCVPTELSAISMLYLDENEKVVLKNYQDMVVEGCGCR
As to the kind of experiment: FP competition assay. The class given is binding. Conditions: FP competition with probe 15 (table footnote).

A further test deals with T3, Sclerostin (Homo sapiens, UniProt Q9BQB4).
T3 sequence (Q9BQB4 24-213): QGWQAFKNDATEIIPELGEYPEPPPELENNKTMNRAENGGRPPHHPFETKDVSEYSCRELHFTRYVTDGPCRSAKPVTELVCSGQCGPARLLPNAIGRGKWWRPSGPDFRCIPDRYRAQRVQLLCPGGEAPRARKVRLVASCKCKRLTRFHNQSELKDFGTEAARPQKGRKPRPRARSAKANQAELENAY
As to the kind of experiment: FP competition assay. The format is binding. Conditions: FP competition with probe 15 (table footnote).

Test [1] concerns antithrombine III (AT-III). The note with it: cited from earlier work.

This is an account of results in PMC6346292 (Chemical Science, 2018).

Molecules are shown by their SMILES.

In the case of `CO[C@H]1O[C@H](COS(=O)(=O)O)[C@@H](O[C@@H]2O[C@@H](C(=O)O)[C@@H](O[C@H]3O[C@H](COS(=O)(=O)O)[C@@H](O[C@@H]4O[C@H](C(=O)O)[C@@H](O[C@H]5O[C@H](COS(=O)(=O)O)[C@@H](O)[C@H](O)[C@H]5NS(=O)(=O)O)[C@H](O)[C@H]4O)[C@H](OS(=O)(=O)O)[C@H]3NS(=O)(=O)O)[C@H](O)[C@H]2OS(=O)(=O)O)[C@H](O)[C@H]1NS(=O)(=O)O` [Fondaparinux, fondaparinux], the figures for the Kd at IL-8, on BMP-2 and at Sclerostin were 19 ± 2.5 µM, 80.9 ± 8.5 µM and 629 ± 335 µM, respectively. Moreover, the “ligand affinity class” value in test [1] is listed as “nanomolar ligand”.
